Literature values in patent US9351995B1, “Compositions and methods of enhancing wound healing” (RED OAX HOLDINGS, LLC, priority 2011, dated 2016).

Legend:
fibroblast = conditions: cited from earlier work
[1] = tested on: human surface respiratory epithelium; conditions: cited from earlier work

Compound | fibroblast outgrowth (fibroblast) | effect on repair of small-size injuries [1]
[Br-].[Br-].[Mg+2] [MgBr2] | inhibitory effects on fibroblast outgrowth | –
COc1cc2c(c(OC)c1OC)-c1ccc(OC)c(=O)cc1[C@@H](NC(C)=O)CC2 [colchicine] | – | did not interrupt the repair process
C=C1[C@@H](C)[C@H]2[C@H](Cc3ccccc3)NC(=O)[C@]23OC(=O)/C=C/[C@H](O)CCC[C@@H](C)C/C=C/[C@H]3[C@@H]1O [cytochalasin B] | – | prevented cell migration
